Test results as given in patent US20260159536A1, “AKR1C3-ACTIVATED DNA ALKYLATING AGENT, AND MEDICAL APPLICATION THEREOF” (ASCENTAWITS PHARMACEUTICALS, LTD., priority 2021, published 2026).
Where two headings read alike, the source gives them in different places.

Assays:
NCI-H522 = assay: AKR1C3-dependent cytotoxicity, NSCLC cell line NCI-H522; type: cell-based; conditions: Homo sapiens
Protocol: (§1) The tested compound was then added. The compound was dissolved in 100% DMSO at 200 times of the desired final test concentration. When the medicament was added, the compound was further diluted to 4 times of the desired final test concentration by using the complete medium. 50 μL of aliquots of the compound with specific concentration were added to the microwells containing 150 μL of medium, and then the final medicament concentration was obtained. […] The medicament was then washed. […] After the incubation was finished, the Alamar Blue was used to analyze and quantify the living cells.

[1] = Liver microsome stability, monkey; type: in vitro ADME; conditions: for Percentage remaining after 30 minutes: Monkey liver microsomes
Protocol: (§2) 1) Two individual experiments were performed.
(§3) All experiments were performed in duplicate.

NCIH1755 = assay: AKR1C3-dependent cytotoxicity, NSCLC cell line NCIH1755; type: cell-based; conditions: Homo sapiens, NCI-H1755
Protocol: as §1

NCI-H23 = assay: AKR1C3-dependent cytotoxicity, NSCLC cell line NCI-H23; type: cell-based; conditions: Homo sapiens
Protocol: as §1

H460 cells = assay: Inhibition of H460 cancer cell proliferation (CTG, 72 h); type: cell-based; conditions: Homo sapiens, NCI-H460
Protocol: If not otherwise specified, IC50 values were measured by the following experimental methods:
c) The cell suspension was added to 96-well plate with 100 μL per well and 2000 cells/well of cell density.
a) Cells were plated for 24 hours, and then the compounds acted singly. 99 μL of growth medium was supplemented per well, and then 1 μL of 200× compound was added, gently shaken to ensure uniform mixing, and then placed in a 37° C., 5% CO2 incubator.
b) The cell plate was placed in the incubator for 72 hours.
b) 100 μL of CTG reagent (CelltiterGlo kit) was added to each well, the plate was placed in a rapid oscillator and shaken for 2 minutes, and then placed at room temperature for 30 minutes away from light.
c) The chemiluminescence signal value was read with Envision instrument.
The IC50 was calculated using GraphPad Prism 8 software and the IC50 (half inhibitory concentration) of the compounds was obtained using the following non-linear fitting formula: […]

NCI-H2110 = assay: AKR1C3-dependent cytotoxicity, NSCLC cell line NCI-H2110; type: cell-based
Protocol: as §1

[2] = test system: HuPrime model LI6643 human liver cancer; assay: In vivo pharmacodynamics, liver cancer LI6643 PDX model (Compound A, Sorafenib, AST-3424; section 4.7); set-up: species or system BALB/c nude mice; conditions: for Relative tumor volume (x ± S) / T/C (%) / TGI (%) / Tumor volume (x ± S): 2 weeks off, QDx5; for Tumor volume (x ± S): in mm³
Protocol: Experiment Instruction: BALB/c nude mice were subcutaneously inoculated with HuPrime® model LI6643 tumor blocks to establish a subcutaneous grafted tumor model of human liver cancer. […] The efficacy was evaluated according to the relative tumor inhibition rate TGI (%), and the safety was evaluated according to the change in body weight and the death of the animals.

H460 cancer cells = assay: H460 proliferation in the presence or absence of AKR1C3 inhibitor AST-3021 (Alamar Blue); type: cell-based, human; conditions: for IC50: Homo sapiens, NCI-H460, H460, 2 hours exposure
Protocol: as §1

NCIH2106 = assay: AKR1C3-dependent cytotoxicity, NSCLC cell line NCIH2106; type: cell-based
Protocol: as §1

CAL12T = assay: AKR1C3-dependent cytotoxicity, NSCLC cell line CAL12T; type: cell-based; conditions: Homo sapiens, CAL-12T
Protocol: as §1

[3] = Liver microsome stability, mouse; type: in vitro ADME; conditions: for Percentage remaining after 30 minutes: Mouse liver microsomes
Protocol: as §2, §3

[4] = Liver microsome stability, human; type: in vitro ADME; conditions: for Percentage remaining after 30 minutes: Human liver microsomes
Protocol: as §2, §3

[5] = Liver microsome stability, rat; type: in vitro ADME; conditions: for Percentage remaining after 30 minutes: Rat liver microsomes
Protocol: as §2, §3

NCI-H1944 = assay: AKR1C3-dependent cytotoxicity, NSCLC cell line NCI-H1944; type: cell-based; conditions: Homo sapiens
Protocol: as §1

P-gp = biological target: T1, P-gp (Homo sapiens, UniProt P08183); assay: P-gp substrate evaluation, MDCKII-MDR1 penetration test with or without Verapamil; type: in vitro ADME
T1 construct: expressed in transfected cells; host or cells: MDCKII-MDR1 cells
Protocol: The conditions of the incubator were set as 37° C., 5% CO2, and 95% of the relative humidity.
After that, the MDCKII-MDR1 cells can be used for the penetration test.
(1) MDCKII-MDR1 transwell culture plate was taken out from the incubator.
(6) The upper and lower transportations were pooled and then incubated at 37° C. for 2 h.
After the sample tubes were vortexed for 10 min, and centrifuged at 3220 g for 30 min. […] Each sample was adopted to the three parallel incubation.
Efflux Ratio was calculated by the following formula: […]
Recovery was calculated by the following formula: […]

NCI-H1563 = assay: AKR1C3-dependent cytotoxicity, NSCLC cell line NCI-H1563; type: cell-based; conditions: Homo sapiens
Protocol: as §1

[6] = 0.5 mg/kg i.v. QDx5, 2 days off, Day 21
[7] = 2 mg/kg i.v. QDx5, 2 days off, Day 21
[8] = Compound A 1 mg/kg i.v. QDx5, 2 days off, Day 21

T1 sequence (P08183 whole entry): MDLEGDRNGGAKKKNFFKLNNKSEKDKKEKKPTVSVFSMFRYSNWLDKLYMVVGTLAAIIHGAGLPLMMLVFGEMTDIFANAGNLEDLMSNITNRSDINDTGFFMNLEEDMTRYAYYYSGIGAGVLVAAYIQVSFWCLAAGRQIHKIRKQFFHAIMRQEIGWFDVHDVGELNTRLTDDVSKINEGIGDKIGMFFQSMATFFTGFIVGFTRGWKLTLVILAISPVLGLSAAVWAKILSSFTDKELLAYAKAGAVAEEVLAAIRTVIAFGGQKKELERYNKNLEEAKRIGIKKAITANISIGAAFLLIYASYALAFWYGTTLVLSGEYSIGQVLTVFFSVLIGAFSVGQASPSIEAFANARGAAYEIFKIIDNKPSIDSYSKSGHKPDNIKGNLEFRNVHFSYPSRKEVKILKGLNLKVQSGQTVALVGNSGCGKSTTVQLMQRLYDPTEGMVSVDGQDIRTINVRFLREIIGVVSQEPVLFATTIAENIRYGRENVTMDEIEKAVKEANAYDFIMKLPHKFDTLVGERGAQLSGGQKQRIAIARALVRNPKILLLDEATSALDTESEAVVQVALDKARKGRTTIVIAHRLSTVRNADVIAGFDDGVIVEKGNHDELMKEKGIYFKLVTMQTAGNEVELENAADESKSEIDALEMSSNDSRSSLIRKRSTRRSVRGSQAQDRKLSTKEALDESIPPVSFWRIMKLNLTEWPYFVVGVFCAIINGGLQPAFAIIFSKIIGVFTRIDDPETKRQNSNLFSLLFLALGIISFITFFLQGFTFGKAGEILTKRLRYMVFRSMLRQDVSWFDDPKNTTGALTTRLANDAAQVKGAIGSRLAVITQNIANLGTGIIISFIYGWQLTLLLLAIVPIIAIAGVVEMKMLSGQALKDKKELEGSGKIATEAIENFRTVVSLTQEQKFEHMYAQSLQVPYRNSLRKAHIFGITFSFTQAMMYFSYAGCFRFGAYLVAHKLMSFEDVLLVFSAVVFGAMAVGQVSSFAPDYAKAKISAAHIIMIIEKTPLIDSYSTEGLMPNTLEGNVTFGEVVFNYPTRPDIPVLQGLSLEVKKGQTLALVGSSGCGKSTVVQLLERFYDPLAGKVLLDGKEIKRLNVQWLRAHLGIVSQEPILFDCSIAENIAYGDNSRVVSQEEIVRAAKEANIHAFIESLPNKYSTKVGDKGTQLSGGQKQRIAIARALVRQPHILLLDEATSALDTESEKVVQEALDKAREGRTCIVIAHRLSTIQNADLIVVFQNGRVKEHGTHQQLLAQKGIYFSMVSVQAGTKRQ

O=[N+]([O-])c1ccc(C(OP(=O)(N2CC2)N2CC2)C(F)(F)F)cc1Oc1ccc(-c2ccc(F)cc2)c(F)c1 (racemic) [Compound A]
IC50 (NCI-H522): 14100 nM | Percentage remaining after 30 minutes ([1]; with the addition of NADPH): 82.29% | Percentage remaining after 30 minutes ([1]; without the addition of NADPH): 81.30% | stability in liver microsomes ([1]; monkey): relatively stable | IC50 (NCIH1755): 570 nM | IC50 (NCI-H23): 11900 nM | IC50 (H460 cells): 6.87 nM | IC50 (NCI-H2110): 67.8 nM | Relative tumor volume (x ± S) [2, 6]: 1.84 ± 0.25 | T/C (%) [2, 6]: 38.12% | TGI (%) [2, 6]: 61.88% | Tumor volume (x ± S) [2, 6]: 242.85 ± 50.74 | Tumor volume ([2]; 0.5 mg/kg i.v., Day 0): 124.86 mm^3 | Tumor volume ([2]; 0.5 mg/kg i.v., Day 3): 239.56 mm^3 | Tumor volume ([2]; 0.5 mg/kg i.v., Day 7): 282.74 mm^3 | Tumor volume ([2]; 0.5 mg/kg i.v., Day 10): 266.35 mm^3 | Tumor volume ([2]; 0.5 mg/kg i.v., Day 14): 231.35 mm^3 | Tumor volume ([2]; 0.5 mg/kg i.v., Day 17): 241.82 mm^3 | Tumor volume ([2]; 0.5 mg/kg i.v., Day 21): 242.85 mm^3 | Tumor volume ([2]; 0.5 mg/kg i.v., Day 24): 173.56 mm^3 | Tumor volume ([2]; 0.5 mg/kg i.v., Day 28): 188.68 mm^3 | Relative tumor volume (x ± S) [2, 7]: 0.97 ± 0.14 | T/C (%) [2, 7]: 20.19% | TGI (%) [2, 7]: 79.81% | Tumor volume (x ± S) [2, 7]: 116.38 ± 20.17 | Tumor volume ([2]; 2 mg/kg i.v., Day 0): 124.40 mm^3 | Tumor volume ([2]; 2 mg/kg i.v., Day 3): 182.25 mm^3 | Tumor volume ([2]; 2 mg/kg i.v., Day 7): 182.74 mm^3 | Tumor volume ([2]; 2 mg/kg i.v., Day 10): 162.65 mm^3 | Tumor volume ([2]; 2 mg/kg i.v., Day 14): 137.87 mm^3 | Tumor volume ([2]; 2 mg/kg i.v., Day 17): 117.10 mm^3 | Tumor volume ([2]; 2 mg/kg i.v., Day 21): 116.38 mm^3 | Tumor volume ([2]; 2 mg/kg i.v., Day 24): 122.78 mm^3 | Tumor volume ([2]; 2 mg/kg i.v., Day 28): 95.87 mm^3 | Relative tumor volume (x ± S) [2, 8]: 1.44 ± 0.16 | T/C (%) [2, 8]: 29.91% | TGI (%) [2, 8]: 70.09% | Tumor volume (x ± S) [2, 8]: 174.86 ± 17.43 | Tumor volume ([2]; Compound A 1 mg/kg i.v., Day 0): 124.32 mm^3 | Tumor volume ([2]; Compound A 1 mg/kg i.v., Day 3): 205.79 mm^3 | Tumor volume ([2]; Compound A 1 mg/kg i.v., Day 7): 246.90 mm^3 | Tumor volume ([2]; Compound A 1 mg/kg i.v., Day 10): 225.40 mm^3 | Tumor volume ([2]; Compound A 1 mg/kg i.v., Day 14): 195.33 mm^3 | Tumor volume ([2]; Compound A 1 mg/kg i.v., Day 17): 191.98 mm^3 | Tumor volume ([2]; Compound A 1 mg/kg i.v., Day 21): 174.86 mm^3 | Tumor volume ([2]; Compound A 1 mg/kg i.v., Day 24): 217.19 mm^3 | Tumor volume ([2]; Compound A 1 mg/kg i.v., Day 28): 231.64 mm^3 | IC50 (H460 cancer cells; AST-3021 3 micromolar, read-out: IC50 With the addition of AST-3021): 2140 nM | IC50 (H460 cancer cells; no AKR1C3 inhibitor, read-out: IC50 Without the addition of AST-3021): 5.82 nM | Fold (H460 cancer cells; IC50 with AST-3021 over IC50 without): 367.13 | IC50 (NCIH2106): 6860 nM | IC50 (CAL12T): 8080 nM | Percentage remaining after 30 minutes ([3]; with the addition of NADPH): 98.59% | Percentage remaining after 30 minutes ([3]; without the addition of NADPH): 104.30% | stability in liver microsomes ([3]; mouse): relatively stable | Percentage remaining after 30 minutes ([4]; with the addition of NADPH): 115.25% | Percentage remaining after 30 minutes ([4]; without the addition of NADPH): 111.93% | stability in liver microsomes ([4]; human): relatively stable | Percentage remaining after 30 minutes ([5]; with the addition of NADPH): 92.10% | Percentage remaining after 30 minutes ([5]; without the addition of NADPH): 114.62% | stability in liver microsomes ([5]; rat): relatively unstable | IC50 (NCI-H1944): 71.3 nM | P-gp substrate (P-gp; MDCKII-MDR1, with and without Verapamil): not substrates for Pgp | Papp A→B at 2 h (P-gp; dog, MDCK-MDR1): 0.18 ×10⁻⁶ cm/s | Papp B→A at 2 h (P-gp; dog, MDCK-MDR1): 0.24 ×10⁻⁶ cm/s | recovery at 2 h (P-gp; dog, MDCK-MDR1, Verapamil 0 μM, read-out: Recovery (%) AP-BL): 5.03% | recovery at 2 h (P-gp; dog, MDCK-MDR1, Verapamil 0 μM, read-out: Recovery (%) BL-AP): 4.34% | recovery at 2 h (P-gp; dog, MDCK-MDR1, with Verapamil 100 μM, Verapamil 100 μM, read-out: Recovery (%) AP-BL): 5.7% | recovery at 2 h (P-gp; dog, MDCK-MDR1, with Verapamil 100 μM, Verapamil 100 μM, read-out: Recovery (%) BL-AP): 12.6% | IC50 (NCI-H1563): 454 nM
